Consider seven compounds from patent US9006455B2 (Bristol-Myers Squibb Company, priority 2009, dated 2015).

Molecules are shown by their SMILES. Like-named read-outs stand apart in the source and are kept apart here.

The experiment relates to HCV 1b genotype. Put plainly: HCV Replicon assay (HCV 1b genotype). The note with it: Hepatitis C virus, HCV 1b genotype replicon. The experiment is classed as cell-based. Summed up: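 Cell-based HCV genotype 1b replicon assay in HCV-neo replicon cells, including replicons carrying NS5A resistance substitutions; luciferase reporter read-outs also used.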
Setting [1] is: read-out: Range (EC50 values against HCV 1b).

Turning to `COC(=O)N[C@H](C(=O)N[C@@H](C)c1ncc(-c2ccc(-c3ccc4cc(-c5cnc([C@H](C)NC(=O)[C@@H](NC(=O)OC)C6CCOCC6)[nH]5)ccc4c3)cc2)[nH]1)C1CCOCC1` [Example 125, Methyl((1S)-2-(((1S)-1-(4-(4-(6-(2-((1S)-1-(((2S)-2-((methoxycarbonyl)amino)-2-(tetrahydro-2H-pyran-4-yl)acetyl)amino)ethyl)-1H-imidazol-4-yl)-2-naphthyl)phenyl)-1H-imidazol-2-yl)ethyl)amino)-2-oxo-1-(tetrahydro-2H-pyran-4-yl)ethyl)carbamate], the EC50 by setting is: (read-out: EC50) 0.136 nM; under setting [1], 0.0101 to 1 nM.

Take `COC(=O)N[C@H](C(=O)N(C)[C@@H](C)c1ncc(-c2ccc(-c3ccc4cc(-c5cnc([C@H](C)N(C)C(=O)[C@@H](NC(=O)OC)C(C)C)[nH]5)ccc4c3)cc2)[nH]1)C(C)C` [Example 126, Methyl((1S)-1-(((1S)-1-(4-(4-(6-(2-((1S)-1-(((2S)-2-((methoxycarbonyl)amino)-3-methylbutanoyl)(methyl)amino)ethyl)-1H-imidazol-4-yl)-2-naphthyl)phenyl)-1H-imidazol-2-yl)ethyl)(methyl)carbamoyl)-2-methylpropyl)carbamate]: the half-maximal effective concentration (EC50) by setting is: (read-out: EC50) 0.654 nM; under setting [1], 0.0101 to 1 nM. On to `COC(=O)N[C@H](C(=O)N1C[C@@H](C)C[C@H]1c1ncc(-c2ccc(-c3ccc4cc(-c5cnc([C@@H]6C[C@H](C)CN6C(=O)[C@@H](NC(=O)OC)C6CCOCC6)[nH]5)ccc4c3)cc2)[nH]1)C1CCOCC1` [Example 129, Methyl(2-((2S,4S)-2-(4-(4-(6-(2-((2S,4S)-1-(((methoxycarbonyl)amino)(tetrahydro-2H-pyran-4-yl)acetyl)-4-methyl-2-pyrrolidinyl)-1H-imidazol-4-yl)-2-naphthyl)phenyl)-1H-imidazol-2-yl)-4-methyl-1-pyrrolidinyl)-2-oxo-1-(tetrahydro-2H-pyran-4-yl)ethyl)carbamate], for which, under setting [1], the EC50 was in the range of 0.0101 to 1 nM.

Consider `COC(=O)N[C@H](C(=O)N1[C@H](c2ncc(-c3ccc(-c4ccc5cc(-c6cnc([C@@H]7C[C@@H]8C[C@@H]8N7C(=O)[C@@H](NC(=O)OC)C(C)C)[nH]6)ccc5c4)cc3)[nH]2)C[C@@H]2C[C@@H]21)C(C)C` [Example 135, Methyl((1S)-1-(((1S,3S,5S)-3-(4-(4-(6-(2-((1S,3S,5S)-2-((2S)-2-((methoxycarbonyl)amino)-3-methylbutanoyl)-2-azabicyclo[3.1.0]hex-3-yl)-1H-imidazol-4-yl)-2-naphthyl)phenyl)-1H-imidazol-2-yl)-2-azabicyclo[3.1.0]hex-2-yl)carbonyl)-2-methylpropyl)carbamate], for which the concentration giving a half-maximal response (EC50) under setting [1] was in the range of 0.0101 to 1 nM. As to `CC(C)(C)OC(=O)N1CCC[C@H]1c1nc(-c2ccc3cc(-c4c[nH]c([C@@H]5CCCN5C(=O)OC(C)(C)C)n4)ccc3c2)c[nH]1` [Intermediate 52, (2S,2′S)-tert-Butyl 2,2′-(4,4′-(naphthalene-2,6-diyl)bis(1H-imidazole-4,2-diyl))dipyrrolidine-1-carboxylate], under setting [1], the 50% effective concentration (EC50) was in the range of 1.01 to 1000 nM. Consider `CC(C)(C)OC(=O)N1[C@@H]2C[C@@H]2C[C@H]1c1nc2ccc(-c3ccc4nc(-c5ccc6nc([C@@H]7C[C@H]8C[C@H]8N7C(=O)OC(C)(C)C)[nH]c6c5)ccc4c3)cc2[nH]1` [Intermediate 70, tert-Butyl(1R,3S,5R)-3-(5-(2-(2-((1R,3S,5R)-2-(tert-butoxycarbonyl)-2-azabicyclo[3.1.0]hex-3-yl)-1H-benzimidazol-6-yl)-6-quinolinyl)-1H-benzimidazol-2-yl)-2-azabicyclo[3.1.0]hexane-2-carboxylate], for which the half-maximal effective concentration (EC50) under setting [1] lay in the range of 1.01 to 1000 nM.

Take `O=C(OCc1ccccc1)N1CCC[C@H]1c1nc2cc(-c3ccc4cc(-c5cnc6[nH]c([C@@H]7CCCN7C(=O)OCc7ccccc7)nc6c5)ccc4c3)cnc2[nH]1` [Intermediate 114, Benzyl(2S)-2-(6-(6-(2-((2S)-1-((benzyloxy)carbonyl)-2-pyrrolidinyl)-1H-imidazo[4,5-b]pyridin-6-yl)-2-naphthyl)-3H-imidazo[4,5-b]pyridin-2-yl)-1-pyrrolidinecarboxylate]: the EC50 under setting [1] was in the range of 1.01 to 1000 nM.
